Test system: T1, βgal5
T1 construct: gene AUR.contig-100_1620_7; GH42; N-terminal 6-His with TEV site (pET-TEV), E. coli BL21(DE3), Ni-NTA
Test: nitrophenol release, absorbance […] nm
Format: biochemical
Details: buffer Z (phosphate, KCl, MgSO4), 30 °C; 2.5-20 mM substrate; read-out: Km (mM) / ONPG

## O=[N+]([O-])c1ccccc1O[C@@H]1O[C@H](CO)[C@H](O)[C@H](O)[C@H]1O [2-nitrophenyl-β-D-galactopyranoside]
  Km: 14.5 mM
